Values joined by “and” are separate entries in the source; they are usually repeats but may differ in a detail not shown here. Equal values may be shown once.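 Method: 48-hour compound exposure of cells in 96-well plates, five concentrations, linear interpolation of endpoints. Abbreviation: GI50, concentration required for 50% inhibition of growth. At the TGI there is no net growth.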
Experiments:
Test in all cases: growth of human tumour cells (NCI), 48 h
HCT-116 colon = test system: HCT-116 colon
NCI-H460 lung = test system: NCI-H460 lung
OVCAR-8 ovarian = test system: OVCAR-8 ovarian
CAKI-1 renal = test system: CAKI-1 renal
NCI-H522 lung = test system: NCI-H522 lung
OVCAR-3 ovarian = test system: OVCAR-3 ovarian
SN12C renal = test system: SN12C renal
SNB-75 CNS = test system: SNB-75 CNS
786-0 renal = test system: 786-0 renal
U251 CNS = test system: U251 CNS
K-562 leukemia = test system: K-562 leukemia
M14 melanoma = test system: M14 melanoma
UO-31 renal = test system: UO-31 renal
HT29 colon = test system: HT29 colon
PC-3 prostate = test system: PC-3 prostate
BT-549 breast = test system: BT-549 breast

Row | SMILES | TGI (HCT-116 colon) [µM] | TGI (NCI-H460 lung) [µM] | TGI (OVCAR-8 ovarian) [µM] | TGI (CAKI-1 renal) [µM] | TGI (NCI-H522 lung) [µM] | TGI (OVCAR-3 ovarian) [µM] | TGI (SN12C renal) | TGI (SNB-75 CNS) [µM] | TGI (786-0 renal) [µM] | TGI (U251 CNS) [µM] | TGI (K-562 leukemia) [µM] | TGI (M14 melanoma) [µM] | TGI (UO-31 renal) [µM] | TGI (HT29 colon) [µM] | TGI (PC-3 prostate) [µM] | GI50 (SNB-75 CNS) [µM] | TGI (BT-549 breast) [µM]
1 | Cc1ccc(Nc2cccc3c2C(=O)c2cccc(Nc4ccc(C)cc4S(=O)(=O)O)c2C3=O)c(S(=O)(=O)O)c1 | > 100 | > 100 | > 100 | > 100 | > 100 | > 100 | > 100 µM | > 100 | > 100 | > 100 | > 100 | > 100 | > 100 |  |  |  | 
2 | CCCCN=NNc1cn(C2OC(CO)C(O)C2O)c(=O)[nH]c1=O (stereo not drawn) | > 100 | > 100 | > 100 | > 100 | > 100 | > 100 | > 100 µM |  | > 100 |  |  | > 100 |  | > 100 | > 100 |  | 
3 | CC(=O)OCC1OC(n2c(C)c(C(C)=O)c(-c3ccco3)c(C#N)c2=S)C(OC(C)=O)C(OC(C)=O)C1OC(C)=O (stereo not drawn) | > 100 | > 100 | > 100 |  | > 100 | > 100 | > 100 µM | 82.1 | > 100 | > 100 | > 100 | > 100 |  | > 100 | > 100 | 0.171 | 
4 | C=C(C)[C@H]1CC[C@@]23O[C@@H]2[C@@H](C[C@@]2(C)CC(=O)[C@H](CC(=O)C1)O2)OC(=O)[C@@]12CC[C@H](C(=C)C)CC(=O)C[C@H]4O[C@](C)(CC4=O)C[C@@H](OC3=O)[C@@H]1O2 | > 100 |  | > 100 | > 100 | > 100 | > 100 | > 100 µM | > 100 | > 100 | > 100 | > 100 | > 100 | > 100 | > 100 | > 100 |  | 
5 | COC(=O)[C@@H]1CN(C(=O)CCc2ccccc2)C(=O)N1 | > 100 | > 100 | > 100 | > 100 | > 100 | > 100 | > 100 µM |  | > 100 | > 100 | > 100 | > 100 | > 100 | > 100 | > 100 |  | 
6 | CC[C@H](C)[C@@H]([C@@H](CC(=O)N1CCC[C@H]1[C@H](OC)[C@@H](C)C(=O)NCCc1ccccc1)OC)N(C)C(=O)C(NC(=O)[C@H](C(C)C)N(C)C)C(C)C (stereo partly drawn) | 0.0038 |  | > 10 | > 10 | 0.000434 | 0.000544 | 0.00499 µM and 0.00515 µM |  | 1.34 | 0.0068 | > 10 | 0.000855 | > 10 | 0.00163 |  |  | > 10
7 | CNc1cc([N+](=O)[O-])ccc1C(=O)N1CCC[C@H]1CO | > 100 | > 100 | > 100 |  | > 100 | > 100 | > 100 µM | > 100 | > 100 | > 100 | > 100 | > 100 | > 100 | > 100 | > 100 |  | 
8 | O=C1c2ccccc2C(=O)N1CCCOCc1c[nH]c(=O)[nH]c1=O | > 100 | > 100 | > 100 | > 100 | > 100 | > 100 | > 100 µM | > 100 | > 100 | > 100 | > 100 | > 100 | > 100 | > 100 |  |  | 
9 | Nc1nc(SCC(=O)c2ccccc2)c2[nH]cnc2n1 | > 100 | > 100 | > 100 | > 100 | > 100 | > 100 | > 100 µM | 82.6 | > 100 | > 100 | > 100 | > 100 |  | > 100 |  |  | 
10 | CC1(C)CC[C@]2(C(=O)O)CC[C@]3(C)C(=CCC4=C5C[C@H](O)[C@H](O)[C@@](C)(CO)[C@@]5(C)CC[C@]43C)[C@@H]2C1 | > 100 | 81.8 | > 100 | 87.2 | > 100 | > 100 | > 100 µM | 83.8 | > 100 | > 100 | > 100 | > 100 | > 100 | > 100 | > 100 |  | 
11 | CN(c1ccccc1)c1cc2ccccc2nn1 | > 100 | > 100 | > 100 | > 100 | > 100 | > 100 | > 100 µM | > 100 | > 100 | > 100 | > 100 | > 100 | > 100 | > 100 |  |  | 
12 | C=C1CN=C(Nc2ccc(Cl)cc2)S1 | > 100 | > 100 | > 100 | > 10 |  | > 100 | > 100 µM | > 100 | > 100 | > 100 | > 100 | > 100 | > 100 | > 100 | > 100 |  | 

Source: PubChem BioAssay (NCI)
